{"source": "patent US20230026277A1", "about": "“COMPOSITION FOR PREVENTION, ALLEVIATION, OR TREATMENT OF RESPIRATORY DISEASE” (MICROX CO., LTD., priority 2019, published 2023)", "assay_type_in_all_cases": "in vivo", "key": {"[1]": {"system": "neutrophils and eosinophils introduced into the airway", "test": "Inflammatory cells (neutrophils and eosinophils) in bronchoalveolar lavage fluid, Diff-Quik staining, asthma-induced mice", "procedure": "(§1) Eight-week-old female […] mice (Orient Bio Korea Inc., Korea) having no certain pathogen were accommodated in an aseptic laminar-flow cabinet, and bred by supplying a standard solid feed ad libitum. When the following experiment was performed, the mice were made to correspond to 7- to 8-weeks old, and all laboratory animals were managed according to the protocol approved by the Institutional Animal Care and Use Committee of the Chonbuk National University Medical School.\n(§2) Also, on days 21 and 28 from the experimental starting date, the mice were put into a plastic box (Plexiglas (Rohm & Haas, Philadelphia, Pa.) exposure chamber; 24.5 cm×40.5 cm×15.0 cm), and 1.5% ovalbumin was evaporated using an ultrasonic nebulizer (NE-U12; output 0.8 mL/min; Omron, Japan), and injected into the box for 30 minutes so that the mice inhaled the evaporated ovalbumin (secondary challenge).\nAfter the mice were anesthetized, a thin tube was inserted into the airway, and a piston process was repeated using a syringe filled with 0.2 mL of physiological saline to obtain a bronchoalveolar lavage fluid. The bronchoalveolar lavage fluid obtained through this piston process was stored at −70° C. when it was not immediately used in the experiments.\n50 μL of the bronchoalveolar lavage fluid obtained in Experimental Method 2 was put on a slide used for the cytospin, and centrifuged for 30 minutes. Thereafter, Diff-Quik staining was performed, and inflammatory cells (neutrophils and eosinophils) were observed using a microscope.\nPreparation Example 3 (α,δ-NA-L-G) or α,δ N-acetyl-D-glutamine (α,δ-NA-D-G) was orally administered to the asthma-induced mice of Experimental Method 1 daily from the experimental starting date at a concentration of 50, 100, or 200 μg/kg/day, and the cell numbers of neutrophils and eosinophils introduced into the airway through the method of Experimental Method 3 were measured. The results are shown in A and B of FIG. 3. In this case, the cell numbers were measured at 10 hours (neutrophils) or 48 hours (eosinophils) after a secondary challenge."}, "[2]": {"system": "MKP-1 protein", "test": "Western blot of MKP-1 protein in lung tissue of asthma-induced mice", "procedure": "as §2\n(§3) A tissue was extracted from each of the mice manufactured in Experimental Method 1, and finely ground to a cell level. Thereafter, the cells were lysed in a cell lysis buffer containing a protease inhibitor to obtain a cell lysate. The cell lysate was centrifuged to obtain protein. Then, an equivalent amount of the proteins obtained from the cells were loaded on an SDS-PAGE gel and electrophoresed. The proteins present in the electrophoresed gel were transferred to a PVDF membrane. […] The PVDF membrane was washed three times with a TBS-T buffer, and visualized and quantified using an ECL Western blotting detection reagent. […]\n(§4) Small interfering RNA (siRNA; hereinafter referred to as “MKP-1 siRNA”) against RNA encoding an MKP-1 protein, and control siRNA strands were purchased from SANTA CRUZ (USA). […] An effect of the MKP-1 siRNA interference was determined by measuring an expression level of the MKP-1 protein in the lung tissue through Western blot analysis. […]"}, "[3]": {"system": "p-cPLA and p-p38 proteins", "test": "Western blot of p-cPLA and p-p38 in lung tissue of asthma-induced mice", "procedure": "as §2, §3, §4"}, "[4]": {"system": "elastin, collagen, and caspase-3 proteins", "test": "Western blot of elastin, collagen and caspase-3 in chronic obstructive pulmonary disease-induced mice", "details": "COPD induced 30 or 60 days; oral 250 μg/kg/day for the last 15 or 30 days; FIGS. 17 and 18", "procedure": "as §1\nThen, the mixed solution was intranasally administered to the mice of Preparative Example 1 once a day for 30 days or 60 days from the experimental starting date. Here, a group to which only physiological saline was intranasally administered and a group to which a solution obtained by mixing 0.25 μg of LPS with 50 μL of a 10% DMSO solution was administered were used as the controls.\nA tissue was extracted from each of the mice manufactured in Experimental Method 1, and finely ground to a cell level. Thereafter, the cells were lysed in a cell lysis buffer containing a protease inhibitor to obtain a cell lysate. The cell lysate was centrifuged to obtain protein. Then, an equivalent amount of the proteins obtained from the cells were loaded on an SDS-PAGE gel and electrophoresed. […] The PVDF membrane was washed three times with a TBS-T buffer, and visualized and quantified using an ECL Western blotting detection reagent. […]"}, "[5]": {"details": "lung tissue, oral daily 200, 500 or 1,000 μg/kg/day, 10 and 30 minutes after secondary challenge, FIG. 7"}, "[6]": {"details": "with MKP-1 siRNA treatment, same conditions as [5-1], FIG. 8"}}}
{"smiles": "CC(=O)NC(=O)CC[C@H](NC(C)=O)C(=O)O", "note": "[Preparation Example 3, 2,5-diacetamido-5-oxopentanoic acid]", "values": [{"measurement": "inflow of the neutrophils and eosinophils into the airway", "setting": "[1]; asthma-induced mice, oral daily 50, 100 or 200 μg/kg/day, neutrophils 10 hours, eosinophils 48 hours after secondary challenge, FIG. 3", "value": "very effectively inhibited"}, {"measurement": "inhibition of neutrophils, compared to the eosinophils", "setting": "[1]; asthma-induced mice, oral daily, from a concentration of 50 μg/kg/day, FIG. 3A", "value": "very effectively inhibited the neutrophils"}, {"measurement": "cell numbers of the neutrophils and eosinophils", "setting": "[1]; experiment [5-6], together with siRNA specific to MKP-1, FIG. 12", "value": "increased"}, {"measurement": "cell numbers of neutrophils and eosinophils", "setting": "[1]; experiment [5-6], without MKP-1 siRNA, FIG. 12", "value": "decreased"}, {"measurement": "level of the MKP-1 protein", "setting": "[2]; [5]", "value": "more increased depending on the concentration"}, {"measurement": "level of the MKP-1 protein", "setting": "[2]; [6]", "value": "did not increase"}, {"measurement": "levels of the p-cPLA and p-p38 proteins", "setting": "[3]; [5]", "value": "decreased depending on the concentration"}, {"measurement": "phosphorylation levels of cPLA2 and p38", "setting": "[3]; [6]", "value": "increased"}, {"measurement": "levels of the elastin, collagen, and caspase-3 proteins", "setting": "[4]", "value": "decreased to that of the negative control (saline)"}]}
